Laboratory results taken from patent publication US20240018153A1, “BENZENESULFONAMIDE DERIVATIVES AND USES THEREOF” (2692372 ONTARIO, INC., priority 2020, published 2024).
Values belong to the molecule of their own block, whether it stands above or below them.

Experiments:
β-Tubulin = test: K562 cell lysis and immunoassay, β-tubulin degradation; format: cell-based; parameters: key: Y: β-tubulin bound in cells and tubulin degradation occurred; settings: K562 cells
Method: K562 cells (ATCC) were cultured in Iscove's Modified Dulbecco's Medium (IMDM) (Wisent) supplemented with 10% FBS and 1% penicillin/streptomycin. Cells were seeded in 6-well plates at 1.71×10^6 cells/well and incubated at 37° C., 5% CO2 for 16 hours. Cells were treated with compounds at the indicated concentrations or DMSO alone and incubated at 37° C., 5% CO2 for 24 hours. Cell suspensions were centrifugated at 1,400 RPM for 5 minutes at room temperature and supernatants were discarded. Cell pellets were resuspended with 1× RIPA buffer (Millipore) and incubated on ice for 15 minutes. Protein lysates were extracted by centrifugating at 20,000 RPM for 20 minutes at 4° C. Proteins were separated and total β-Tubulin levels were quantified by Simple Western Immunoassay (ProteinSimple) using the Protein Normalization Assay Module for Jess (ProteinSimple) according to the manufacturer's protocol, using a protein concentration of 0.05 μg/μl and an antibody targeting β-Tubulin (Abcam) diluted to 1:800. β-Tubulin levels were quantified relative to the Protein Normalization Reagent and subsequently normalized to the DMSO control.

EGFR [1] = molecular target: T1, EGFR (Homo sapiens (Human), UniProt P00533); test: HTRF KinEASE-TK kinase assay, EGFR; format: biochemical; settings: 3 h preincubation; for remaining activity at 1 µM: 1 μM compound, read-out: % EGFR Remaining activity vs DMSO (1 μM, 3 h); for remaining activity at 10 µM: 10 μM compound, read-out: % EGFR Remaining activity vs DMSO (10 μM, 3 h)
Procedure, shortened: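 HTRF KinEASE-TK format: EGFR pre-incubated with compound at 1 and 10 uM final (0.5% DMSO) in kinase buffer with 2 mM MnCl2, 5 mM MgCl2 and 1 mM TCEP.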

BTK = BTK (Homo sapiens (Human), UniProt Q06187); test: HTRF KinEASE-TK kinase assay, BTK; format: biochemical; settings: 3 h preincubation; for remaining activity at 1 µM: 1 μM compound, read-out: % BTK Remaining activity vs DMSO (1 μM, 3 h); for remaining activity at 10 µM: 10 μM compound, read-out: % BTK Remaining activity vs DMSO (10 μM, 3 h)
Procedure, shortened: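 BTK activity in HTRF KinEASE-TK format, buffer containing 10 mM MnCl2, 5 mM MgCl2, 1 uM ATPγS and 1 mM TCEP; 45 min reaction with biotinylated substrate and ATP.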

BMX = BMX (Homo sapiens (Human), UniProt P51813); test: HTRF KinEASE-TK kinase assay, BMX; format: biochemical; settings: for remaining activity at 1 µM: 1 uM compound; for remaining activity at 1 µM / remaining activity at 10 µM: 3 h preincubation; for remaining activity at 10 µM: 10 uM compound
Procedure, shortened: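 Purchased BMX (0.333 ng/ul, 3.03 nM) was preincubated with or without inhibitor for 3 h at room temperature, then biotinylated substrate and ATP were added. Reactions were stopped with EDTA-containing buffer holding 31.25 nM SA-XL665 and Eu-antibody, and after 60 min phosphorylation was read as the HTRF 665/620 nm emission ratio.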

JAK3 = JAK3 (Homo sapiens (Human), UniProt P52333); test: HTRF KinEASE-TK kinase assay, JAK3; format: biochemical; settings: for remaining activity at 1 µM: read-out: % JAK3 Remaining activity vs DMSO (1 μM, 3 h); for remaining activity at 10 µM: read-out: % JAK3 Remaining activity vs DMSO (10 μM, 3 h)
Procedure, shortened: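 Promega JAK3 at 0.21 nM was preincubated with inhibitor for 3 h at room temperature before biotinylated substrate and ATP were added. The reaction was stopped with EDTA detection buffer containing 31.25 nM SA-XL665 and Eu-antibody. After 60 min, the HTRF 665/620 nm emission ratio reflected substrate phosphorylation.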

FGFR4 = FGFR4 (Homo sapiens (Human), UniProt P22455); test: HTRF KinEASE-TK kinase assay, FGFR4; format: biochemical; settings: for remaining activity at 1 µM: read-out: % FGFR4 Remaining activity vs DMSO (1 μM, 3 h); for remaining activity at 10 µM: read-out: % FGFR4 Remaining activity vs DMSO (10 μM, 3 h)
Procedure, shortened: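 Promega FGFR4 at 0.333 ng/ul (5.12 nM) preincubated with or without inhibitor for 3 h at room temperature, then reaction started with biotinylated substrate and ATP. Stopped with EDTA detection buffer containing 31.25 nM SA-XL665 and Eu-antibody; after 60 min, HTRF 665/620 nm ratio read as substrate phosphorylation.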

[2] = molecular target: His-tagged BTK protein (SEQ ID NO: 1) (Homo sapiens (Human), UniProt Q06187); test: Intact mass analysis (LC-MS/MS) of covalent modification; format: binding; settings: His-tagged BTK (unmodified 32,650 Da) incubated with compound
Method: The covalent modification of the proteins with the compounds were evaluated using intact mass analysis by liquid chromatography-mass spectrometry instrument (LC-MS/MS).
The reaction solution (20 μL) was prepared in 96-well plate and contained the protein (2 μM), the compound (100 μM), HEPES buffer (20 mM, pH 8), 2% DMSO, 2% glycerol, and 150 mM NaCl. The reaction was allowed to proceed for 24 h at 25° C. The reaction solution (1 μL) was injected into the LC/MS/MS without any further sample preparation.
The LC-MS/MS instrument comprises of a Waters G2-XS quadrupole-time of flight (QTof) mass spectrometer and a Waters Acuity I-class Ultra-High Performance Liquid Chromatography (UPLC) system. The I-class UPLC system includes a binary solvent manager (BSM), and a Acquity sample manager (SM). The mobile phase consisted of: A) 0.1% (v/v) formic acid in MilliQ water; B) 0.1% (v/v) formic acid acetonitrile. Gradients were run over 5 min and proceeded as follows: A:B, 85:15, 0.0-0.7 min, 85:15→15:85, 0.7-1.5 min, 10:90, 1.5-4 min, 10:90→85:15, 4-4.5 min, 85:15, 4.5-5 min. The analytical column was a Waters BEH C4 column 1.7 μm (50×1 mm) column with pore sizes of […]. The TOF MS data was collected in positive ion mode (m/z of 400-2000 Da) using MassLynx software (Waters).
The spectral deconvolution was performed using UNIFI software (Waters). The added mass of the protein upon covalent modification to cysteine residues were specified. Multiple modification of up to 8 cysteine was allowed. All the adducts with signal intensities of <2% of the base peak were ignored. The % modification was calculated as the adduct signal intensity over the total intensities of the protein peaks and the adducts.

EGFR [3] = molecular target: T1, EGFR; test: Time-dependent inhibition of EGFR (HTRF); format: biochemical; settings: pre-incubation 0-60 min
Method: For the time-dependent inhibition experiments, the activity of EGFR kinase was monitored using a HTRF® KinEASE-TK kit from Cisbio (62TK0PEC) as described above. Six compounds showing higher potency during dose response analysis against EGFR, were further evaluated for their change in inhibitory potency over time. Ibrutinib was used as a positive control. The selected compounds were pre incubated with the kinase at 11 different concentrations, ranging from […] to 25 uM final compound concentrations. The pre incubation times were 0, 2, 5, 10, 15, 30, 45 and 60 min. After the preincubation, the reaction was initiated by adding biotinylated substrate and ATP and the reaction was allowed to proceed for 45 min. […] The reaction was terminated by adding 31.25 nM SA-XL665 and 100 fold diluted europium labelled antibody (Eu-Ab), diluted in 1× detection buffer that contained EDTA. After 60 min of incubation, the fluorescence emission was measured at 620 nm and 665 nm. The ratio of Em 665 nm to Em 620 nm was proportional to the amount of substrate phosphorylated by the kinase. Product formation vs pre-incubation time data were fitted to a one phase exponential decay equation using GraphPad Prism. The same product formation vs inhibitor concentration data were also fitted to a log(antagonist) vs. response—Variable slope equation in GraphPad Prism to provide IC50 values at different pre incubation times.

Chain of FGFR4 (P22455 22-802): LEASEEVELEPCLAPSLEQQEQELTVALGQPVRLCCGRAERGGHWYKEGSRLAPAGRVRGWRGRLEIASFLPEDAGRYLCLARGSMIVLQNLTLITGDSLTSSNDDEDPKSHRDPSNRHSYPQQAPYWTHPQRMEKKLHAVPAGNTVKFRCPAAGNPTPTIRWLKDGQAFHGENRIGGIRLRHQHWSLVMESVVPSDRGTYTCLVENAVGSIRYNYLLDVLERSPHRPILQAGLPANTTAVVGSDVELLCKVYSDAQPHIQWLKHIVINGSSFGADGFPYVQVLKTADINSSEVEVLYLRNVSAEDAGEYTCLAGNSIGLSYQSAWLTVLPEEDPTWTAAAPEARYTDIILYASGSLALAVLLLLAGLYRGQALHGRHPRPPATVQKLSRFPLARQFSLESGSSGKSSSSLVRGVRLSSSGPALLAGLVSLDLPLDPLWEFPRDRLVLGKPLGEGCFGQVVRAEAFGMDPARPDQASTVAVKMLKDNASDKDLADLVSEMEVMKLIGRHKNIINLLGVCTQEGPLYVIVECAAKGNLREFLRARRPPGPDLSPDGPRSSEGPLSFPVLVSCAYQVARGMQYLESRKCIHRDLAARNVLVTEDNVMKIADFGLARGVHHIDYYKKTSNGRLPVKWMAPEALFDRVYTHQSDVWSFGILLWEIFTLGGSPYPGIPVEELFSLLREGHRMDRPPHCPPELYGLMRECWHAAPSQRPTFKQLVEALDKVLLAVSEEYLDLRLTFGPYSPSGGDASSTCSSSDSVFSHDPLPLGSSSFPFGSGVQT
T1 sequence (P00533 25-1210): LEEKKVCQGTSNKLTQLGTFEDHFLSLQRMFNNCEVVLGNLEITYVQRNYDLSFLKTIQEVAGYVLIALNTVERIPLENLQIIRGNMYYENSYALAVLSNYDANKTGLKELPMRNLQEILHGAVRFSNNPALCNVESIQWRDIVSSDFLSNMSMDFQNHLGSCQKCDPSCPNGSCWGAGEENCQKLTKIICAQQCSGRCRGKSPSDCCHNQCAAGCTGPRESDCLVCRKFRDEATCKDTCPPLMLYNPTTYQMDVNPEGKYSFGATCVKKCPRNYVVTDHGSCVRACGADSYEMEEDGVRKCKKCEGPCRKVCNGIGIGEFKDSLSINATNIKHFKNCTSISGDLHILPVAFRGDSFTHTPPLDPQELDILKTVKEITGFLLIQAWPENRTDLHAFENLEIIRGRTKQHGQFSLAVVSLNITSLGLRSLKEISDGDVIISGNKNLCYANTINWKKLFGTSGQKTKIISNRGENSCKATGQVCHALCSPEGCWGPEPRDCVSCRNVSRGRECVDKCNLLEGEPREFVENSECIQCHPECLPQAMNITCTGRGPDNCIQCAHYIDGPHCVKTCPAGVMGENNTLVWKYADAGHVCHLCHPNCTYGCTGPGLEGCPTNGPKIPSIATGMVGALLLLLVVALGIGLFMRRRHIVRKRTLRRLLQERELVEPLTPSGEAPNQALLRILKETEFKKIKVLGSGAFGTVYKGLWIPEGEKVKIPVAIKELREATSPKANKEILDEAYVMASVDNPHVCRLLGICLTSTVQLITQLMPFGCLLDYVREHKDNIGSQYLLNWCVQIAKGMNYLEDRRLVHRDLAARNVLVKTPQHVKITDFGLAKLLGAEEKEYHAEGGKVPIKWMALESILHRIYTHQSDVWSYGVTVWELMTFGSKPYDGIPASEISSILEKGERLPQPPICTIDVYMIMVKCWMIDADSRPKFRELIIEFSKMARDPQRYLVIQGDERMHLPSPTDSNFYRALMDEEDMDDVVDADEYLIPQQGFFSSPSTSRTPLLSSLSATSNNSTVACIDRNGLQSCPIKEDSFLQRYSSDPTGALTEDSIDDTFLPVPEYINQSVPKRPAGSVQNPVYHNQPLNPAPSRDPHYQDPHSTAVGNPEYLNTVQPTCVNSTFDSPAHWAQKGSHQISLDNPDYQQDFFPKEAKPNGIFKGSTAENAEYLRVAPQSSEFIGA
Chain of BMX (P51813 whole entry): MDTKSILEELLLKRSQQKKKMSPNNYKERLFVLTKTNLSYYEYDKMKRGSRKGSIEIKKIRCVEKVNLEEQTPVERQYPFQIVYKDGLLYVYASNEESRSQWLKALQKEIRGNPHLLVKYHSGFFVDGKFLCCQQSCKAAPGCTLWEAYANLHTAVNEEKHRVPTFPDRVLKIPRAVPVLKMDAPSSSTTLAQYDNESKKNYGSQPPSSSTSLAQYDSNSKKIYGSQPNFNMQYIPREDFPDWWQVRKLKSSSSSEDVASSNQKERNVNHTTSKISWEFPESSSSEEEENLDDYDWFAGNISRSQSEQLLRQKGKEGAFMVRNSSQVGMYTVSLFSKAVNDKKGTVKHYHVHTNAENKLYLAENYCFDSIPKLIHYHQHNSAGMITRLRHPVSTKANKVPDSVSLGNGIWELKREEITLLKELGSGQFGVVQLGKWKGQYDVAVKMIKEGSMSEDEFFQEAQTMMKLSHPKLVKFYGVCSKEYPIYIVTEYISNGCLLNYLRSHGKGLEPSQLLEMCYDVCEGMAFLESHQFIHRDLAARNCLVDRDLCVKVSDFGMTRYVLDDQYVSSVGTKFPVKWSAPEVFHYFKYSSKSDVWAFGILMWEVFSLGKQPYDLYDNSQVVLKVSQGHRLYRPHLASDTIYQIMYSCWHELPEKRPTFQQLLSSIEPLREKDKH
Chain of JAK3 (P52333 781-1124): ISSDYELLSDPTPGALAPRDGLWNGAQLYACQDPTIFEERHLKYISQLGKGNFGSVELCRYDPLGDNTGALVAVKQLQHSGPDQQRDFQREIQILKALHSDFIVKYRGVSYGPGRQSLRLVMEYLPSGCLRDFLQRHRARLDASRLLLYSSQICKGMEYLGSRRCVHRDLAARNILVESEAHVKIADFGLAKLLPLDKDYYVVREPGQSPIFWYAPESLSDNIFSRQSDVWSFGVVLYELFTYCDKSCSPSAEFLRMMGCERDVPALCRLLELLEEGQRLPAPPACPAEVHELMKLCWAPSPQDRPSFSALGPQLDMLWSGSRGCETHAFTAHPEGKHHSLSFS
Chain of BTK (Q06187 whole entry): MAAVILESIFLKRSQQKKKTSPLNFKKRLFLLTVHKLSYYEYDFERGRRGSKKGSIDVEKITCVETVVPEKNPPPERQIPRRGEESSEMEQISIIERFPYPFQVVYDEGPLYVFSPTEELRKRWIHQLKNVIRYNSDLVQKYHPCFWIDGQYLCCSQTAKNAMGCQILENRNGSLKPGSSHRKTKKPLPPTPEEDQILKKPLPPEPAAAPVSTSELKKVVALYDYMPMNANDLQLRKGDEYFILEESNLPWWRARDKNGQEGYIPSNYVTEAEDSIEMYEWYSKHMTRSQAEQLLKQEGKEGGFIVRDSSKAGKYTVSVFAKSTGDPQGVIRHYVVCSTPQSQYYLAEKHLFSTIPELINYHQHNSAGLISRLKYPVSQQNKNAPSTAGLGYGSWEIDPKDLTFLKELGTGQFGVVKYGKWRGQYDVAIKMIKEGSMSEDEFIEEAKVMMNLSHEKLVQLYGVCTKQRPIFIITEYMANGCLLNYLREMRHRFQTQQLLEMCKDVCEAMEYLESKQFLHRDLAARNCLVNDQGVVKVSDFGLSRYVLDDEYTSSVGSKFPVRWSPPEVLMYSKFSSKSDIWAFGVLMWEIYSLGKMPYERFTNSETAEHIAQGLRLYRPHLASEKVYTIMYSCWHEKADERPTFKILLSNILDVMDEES
Chain of His-tagged BTK protein (SEQ ID NO: 1) (Q06187 other isoform, or with tags, fused parts or gaps): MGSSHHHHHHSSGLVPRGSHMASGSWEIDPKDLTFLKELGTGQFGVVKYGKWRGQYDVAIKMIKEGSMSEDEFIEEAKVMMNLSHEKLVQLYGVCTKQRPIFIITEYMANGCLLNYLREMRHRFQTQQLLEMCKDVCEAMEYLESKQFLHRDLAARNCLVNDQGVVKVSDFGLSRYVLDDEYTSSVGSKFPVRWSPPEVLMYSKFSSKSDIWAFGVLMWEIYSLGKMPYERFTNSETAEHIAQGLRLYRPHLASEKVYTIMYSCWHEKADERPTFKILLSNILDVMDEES

Structure (SMILES): COc1ccc(NS(=O)(=O)c2c(F)c(F)c(F)c(F)c2C(F)(F)F)cc1F [Compound I-6, 2,3,4,5-tetrafluoro-N-(3-fluoro-4-methoxyphenyl)-6-(trifluoromethyl) benzenesulfonamide]
Beta-tubulin - K562 24 hrs (1 μM) (β-Tubulin): Y
Beta-tubulin K562, compound concentration, 24 hrs (β-Tubulin; compound concentration 10): Y

Structure (SMILES): COc1ccc(N(C)S(=O)(=O)c2c(F)c(F)c(F)c(F)c2C(F)(F)F)cc1F [Compound I-7, 2,3,4,5-tetrafluoro-N-(3-fluoro-4-methoxyphenyl)-N-methyl-6-(trifluoromethyl) benzenesulfonamide]
Beta-tubulin - K562 24 hrs (1 μM) (β-Tubulin): Y
Beta-tubulin K562, compound concentration, 24 hrs (β-Tubulin; compound concentration 0.5): Y

Structure (SMILES): COc1ccc(NC(=O)c2c(F)c(F)c(F)c(F)c2S(=O)(=O)N(C)C)cc1F [Compound I-9, 2-(N,N-dimethylsulfamoyl)-3,4,5,6-tetrafluoro-N-(3-fluoro-4-methoxyphenyl) benzamide]
Beta-tubulin K562, compound concentration, 24 hrs (β-Tubulin; compound concentration 10): Y

Structure (SMILES): COc1ccc(/N=C/c2c(F)c(F)c(F)c(F)c2S(C)(=O)=O)cc1F [Compound I-11, (E)-N-(3-fluoro-4-methoxyphenyl)-1-(2,3,4,5-tetrafluoro-6-(methylsulfonyl)phenyl) methanimine]
Beta-tubulin K562, compound concentration, 24 hrs (β-Tubulin; compound concentration 0.5): Y

Structure (SMILES): COc1ccc(CS(=O)(=O)c2c(F)c(F)c(F)c(F)c2OC(F)F)cc1F [Compound I-15, 1-(difluoromethoxy)-2,3,4,5-tetrafluoro-6-((3-fluoro-4-methoxybenzyl)sulfonyl) benzene]
Beta-tubulin K562, compound concentration, 24 hrs (β-Tubulin; compound concentration 10): Y

Structure (SMILES): COc1ccc(CS(=O)(=O)c2c(F)c(F)c(F)c(F)c2OCc2ccccc2)cc1F [Compound I-16, 1-(benzyloxy)-2,3,4,5-tetrafluoro-6-((3-fluoro-4-methoxybenzyl)sulfonyl)benzene]
Beta-tubulin K562, compound concentration, 24 hrs (β-Tubulin; compound concentration 10): Y

Structure (SMILES): COc1ccc(OCc2c(F)c(F)c(F)c(F)c2S(C)(=O)=O)cc1F [Compound I-17, 1,2,3,4-tetrafluoro-5-((3-fluoro-4-methoxyphenoxy)methyl)-6-(methylsulfonyl) benzene]
Beta-tubulin K562, compound concentration, 24 hrs (β-Tubulin; compound concentration 5): Y

remaining activity at 1 µM (EGFR [1]): > 90%
remaining activity at 10 µM (EGFR [1]): > 90%
remaining activity at 1 µM (BTK): < 50%
remaining activity at 10 µM (BTK): < 50%
remaining activity at 1 µM (BMX): < 50%
remaining activity at 10 µM (BMX): < 50%
IC50 (JAK3; dose response): < 1000 nM
remaining activity at 1 µM (JAK3): < 50%
remaining activity at 10 µM (JAK3): < 50%
remaining activity at 1 µM (FGFR4): 50 to 90%
remaining activity at 10 µM (FGFR4): < 50%
covalent adduct mass (intact mass analysis, modification by one molecule) [2]: 33,243 Da
Structure (SMILES): COCCOc1ccc(Nc2ncc(F)c(NCCCNS(=O)(=O)c3c(F)c(F)c(F)c(F)c3OC(F)F)n2)cc1 [Compound I-55, 2-(difluoromethoxy)-3,4,5,6-tetrafluoro-N-(3-((5-fluoro-2-((4-(2-methoxyethoxy)phenyl)amino)pyrimidin-4-yl)amino)propyl)benzenesulfonamide]

remaining activity at 1 µM (EGFR [1]): > 90%
remaining activity at 10 µM (EGFR [1]): > 90%
remaining activity at 1 µM (BTK): < 50%
remaining activity at 10 µM (BTK): < 50%
remaining activity at 1 µM (BMX): < 50%
remaining activity at 10 µM (BMX): < 50%
IC50 (BMX; dose response): < 1000 nM
remaining activity at 1 µM (JAK3): < 50%
remaining activity at 10 µM (JAK3): < 50%
remaining activity at 1 µM (FGFR4): 50 to 90%
remaining activity at 10 µM (FGFR4): < 50%
covalent adduct mass (intact mass analysis, modification by one molecule) [2]: 33,209 Da
Structure (SMILES): COCCOc1ccc(Nc2ncc(F)c(NCCCNS(=O)(=O)c3c(F)c(F)c(F)c(F)c3CF)n2)cc1 [Compound I-56, 2,3,4,5-tetrafluoro-N-(3-((5-fluoro-2-((4-(2-methoxyethoxy)phenyl)amino)pyrimidin-4-yl)amino)propyl)-6-(fluoromethyl)benzenesulfonamide]

Structure (SMILES): C=CC(=O)N1CCC[C@@H](n2nc(-c3ccc(Oc4ccccc4)cc3)c3c(N)ncnc32)C1 [ibrutinib, reference compound]
Time-dependent inhibition of EGFR: product formation versus pre-incubation time (EGFR [3]; mono-exponential decay fit): concentration-dependent first order loss of enzyme activity
Time-dependent inhibition of EGFR: IC50 values versus pre-incubation time (EGFR [3]): decrease as pre-incubation times increase
